From patent publication US20130064768A1, “LIPOPHILIC CATIONIC PROBE FOR PET-IMAGING” (Medical Research Council, priority 2010, published 2013)
Where two headings read alike, the source gives them in different places.

Tests used:
[1] = published values; cited from earlier work
[2] = Tissue and blood distribution of [3H]TPP compounds after iv tail vein injection
Protocol: A sample of the [^3H]compound solution injected was retained to calculate the specific activity, which was subsequently used to determine the tissue content of the compound. At the indicated times after injection, the mice were killed by cervical dislocation and a blood sample of ˜100-200 μL was obtained by cardiac puncture. The organs were then removed, cleared of blood, transferred to pre-chilled Eppendorf tubes on ice, weighed and stored at −80° C. until processing. The tissues taken were: heart, kidneys, liver, brain, skeletal muscle (gastrocnemius) and white adipose tissue (subcutaneous). […] The mice were monitored after injection to ensure no pathology or distress and all procedures were carried out under the approval of the University of Otago animal ethics committee.
Extraction of [^3H] Compounds from Tissues Tissues were thawed at room temperature and transferred to 50 mL Falcon tubes. Ice-cold methanol 4° C.; 1 mL/100 mg tissue wet weight) was added to the tissue and the tissue homogenised using an Ultraturrax homogeniser (2×30 s on ice).
The homogenate was transferred in 1 mL batches to 1.5 mL Eppendorf tubes and centrifuged (10,000×g for 8 min at 4° C.). The methanol extract was decanted into a 20 ml glass scintillation vial (Wheaton) and the methanol evaporated under a stream of N2. Further ice-cold methanol (1 mL/100 mg) was added to the tissue homogenate pellets, vortexed for 1 min, centrifuged as above and the methanol extract decanted to a fresh 20 mL glass scintillation vial and evaporated. This procedure was repeated 3 more times to give 5 extracts per tissue sample. […] The specific activity of the injected [^3H] compound was then used to calculate the tissue content uptake as mol compound/g wet weight tissue. The half lives of compounds in organs were determined from the first order rate constants for loss of [^3H] compound from the organs, measured as the slope of ln[TPP compound] against time for the first 5 h after iv injection.

[3] = test system: mitochondrial membrane potential; experiment: Effect of the uncoupler DNP on organ uptake of [3H]FluoroUndecylTPP in vivo; set-up: species or system mice; conditions: DNP 200 or 300 μg/kg ip 15 min after probe, organs taken 15 min later; dose dependent
Protocol: (§1) After 15 min the mice were injected ip with DNP (200 or 300 μg/kg) or saline carrier and after a further 15 min later they were killed and the content of [^3H]FluoroUndecylTPP in the tissues determined. Data are means ± range for two mice per condition. B, IAM-TPP is shown being taken up in to mitochondria within a cell where it reacts with thiol proteins to form a thioether adduct that can then be detected by immunoblotting. C, Confocal image of IAM-TPP binding to mitochondria in cells. C2C12 cells were incubated with 1 μM IAM-TPP for 3 h±10 μM FCCP. The cells were then fixed and the location of the TPP moiety within the cells determined by labelling with antiserum against the TPP moiety, visualised by immunofluorescence confocal microscopy. […] The mitochondria (40 μg protein) were separated by SDS-PAGE and proteins that had been labelled with IAM-TPP were detected by immunoblotting using antiserum against the TPP moiety. […]
Therefore it is likely that once the alkylTPP compounds are accumulated within tissues they are predominantly localised within mitochondria, driven by the membrane potential. To see if this was the case in these experiments, it was next determined if the uptake of the alkylTPP compounds in vivo was decreased by lowering the mitochondrial membrane potential. […]

[4] = test system: liver and heart mitochondria; experiment: IAM-TPP uptake by mitochondria in vivo (immunoblot with anti-TPP antiserum); set-up: species or system mice; conditions: 500 nmol iv, mitochondria isolated 1 h later
Protocol: as §1
(§2) To assess uptake of IAM-TPP by mitochondria in vivo, mice were injected iv by the tail vein as above with 500 nmol IAM-TPP in 100 μL sterile PBS. One hour later the mice were killed by cervical dislocation and liver and heart mitochondria prepared by homogenisation followed by differential centrifugation and the protein content determined by the bicinchoninic acid assay using bovine serum albumin as a standard. […]

[5] = Octan-1-ol/PBS partition coefficient; conditions: determined in this study
[6] = test system: C2C12 cells; experiment: IAM-TPP uptake into mitochondria within cells (immunocytochemistry, confocal microscopy); type: cell-based, mouse; conditions: 1 μM, 3 h, ±10 μM FCCP
Protocol: as §1, §2

[7] = test system: mitochondrial protein thiols; experiment: Incubation of IAM-TPP with isolated mitochondria; conditions: data not shown
[8] = 24 h after iv injection, other studies; cited from earlier work
[9] = Monitoring of mice for toxicity after iv injection of TPP cations; type: in vivo; conditions: 100 nmol iv in mice
Protocol: Female C57/BL6 mice (20-25 g) were maintained on a 12 h light/dark cycle with ad libitum access to standard lab chow and water. […] A sample of the [^3H]compound solution injected was retained to calculate the specific activity, which was subsequently used to determine the tissue content of the compound. At the indicated times after injection, the mice were killed by cervical dislocation and a blood sample of ˜100-200 μL was obtained by cardiac puncture. The organs were then removed, cleared of blood, transferred to pre-chilled Eppendorf tubes on ice, weighed and stored at −80° C. until processing. The tissues taken were: heart, kidneys, liver, brain, skeletal muscle (gastrocnemius) and white adipose tissue (subcutaneous). […] The mice were monitored after injection to ensure no pathology or distress and all procedures were carried out under the approval of the University of Otago animal ethics committee.

[10] = mice, 100 nmol iv bolus, first 5 h after injection

CCCCCCCCCC[P+](c1ccccc1)(c1ccccc1)c1ccccc1 [DecylTPP]
Octanol/PBS partition coefficient [1]: 5000
half life for clearance from fat and muscle ([2]; mouse, in vivo, iv): 7 to 12 h
half life for loss from the heart ([2]; mouse, in vivo, iv): ~15 h
half life for loss from the kidneys ([2]; mouse, in vivo, iv): ~3 h
half life for loss from the liver ([2]; mouse, in vivo, iv): ~3 h

CS(=O)(=O)[O-].FCCCCCCCCCCC[P+](c1ccccc1)(c1ccccc1)c1ccccc1 [FluoroUndecylTPP, 11-fluoroundecyltriphenylphosphonium mesylate]
decrease of uptake into the organs by DNP [3]: up to 40%
half life for loss from the heart [2, 10]: ~21 h
half life for loss from the kidneys [2, 10]: ~3 h
half life for loss from the liver [2, 10]: ~3 h
enhancement of organ/blood concentration ratio relative to TPMP ([2]; mice, iv): over a hundred-fold

CS(=O)(=O)[O-].O=C(CI)NCCCCC[P+](c1ccccc1)(c1ccccc1)c1ccccc1 [IAM-TPP]
labelling of mitochondrial proteins in vivo [4]: labelling of heart and liver mitochondrial proteins
Octanol/PBS partition coefficient [5]: 19±1
localisation within cells [6]: uncoupler-sensitive localisation of IAM-TPP within mitochondria
reaction with protein thiols of isolated mitochondria [7]: rapidly reacted with protein thiols

COC1=C(OC)C(=O)C(CCCCCCCCCC[P+](c2ccccc2)(c2ccccc2)c2ccccc2)=C(C)C1=O [MitoQ]
MitoQ eliminated [8]: ~80%
Octanol/PBS partition coefficient [1]: 2760
toxicity of the injected amount [9]: non-toxic
uptake by muscle and adipose tissue ([2]; 1 h after 100 nmol iv): lower uptake
uptake by the brain ([2]; 1 h after 100 nmol iv): very little uptake
uptake by the heart ([2]; 1 h after 100 nmol iv): less extensive uptake
uptake by the liver and kidneys ([2]; 1 h after 100 nmol iv): extensive uptake
heart/blood ratio, in ratio (TPMP = 1) ([2]; 1 h after iv injection): 11
uptake into the heart, ratio (TPMP = 1) ([2]; 1 h after iv injection): 6
heart/blood ratio, in ratio (TPMP = 1) ([2]; 5 h after iv injection): 26
uptake into the heart, ratio (TPMP = 1) ([2]; 5 h after iv injection): 10
half life for loss from the heart [2, 10]: ~15 h
half life for loss from the kidneys [2, 10]: ~4 h
half life for loss from the liver [2, 10]: ~2 h
time of maximum uptake into tissues ([2]; mice, 100 nmol iv, earliest time measurable): 5 min

C[P+](c1ccccc1)(c1ccccc1)c1ccccc1 [TPMP]
half life for loss from the heart [2, 10]: ~2 h
half life for loss from the kidneys [2, 10]: ~2 h
half life for loss from the liver [2, 10]: ~3 h
half life for clearance from fat and muscle ([2]; mice, 100 nmol iv bolus, estimate only): 1 to 2 h
